Holding throughout (format): cell-based, human
One assay concerns T24 cells. Briefly: CCK-8 anti-proliferative assay, T24. The conditions noted are these: Table 16, comparative compounds 8-1 to 8-23, co-incubated 48 h, read-out: Anti-proliferative activity (IC50 ± standard deviation) T24. The text has this:
(§1) The obtained quinazolinyl-aryl urea derivatives were screened for compounds with optimal activity using the following method. All cell lines employed in this experiment were of human origin, including: bladder cancer cells: J82, UM-UC-3, T24, 5637, pancreatic cancer cells: BxPC-3, PANC-1, osteosarcoma cells: 143B, MG-63, cervical cancer cells: HeLa, breast cancer cells: MCF-7, NSCLC cells: A549, hepatoblastoma cells: Hep G2, and ovarian cancer cells: SK-OV-3, as well as normal cell lines: immortalized ureteral epithelial cells (SV-HUC-1), embryonic lung fibroblasts (WI-38).
(§2) Experimental Procedure for Anti-Proliferative Activity Evaluation: The CCK-8 assay was employed. Cells in logarithmic growth phase were harvested, adjusted to appropriate density, and uniformly seeded into 96-well plates using a multichannel pipette (180 μL cell suspension containing complete medium per well, 5,000 cells/well). Blank control wells (containing basal medium, CCK-8 solution, and DMSO only) were set. Cells were incubated at 37° C. under 5% CO2. After 70% confluency was reached, test compounds (target compounds/positive controls) were added at final concentrations of 1, 2, 4, 6, 8, 12, 16, 24, and 30 μM (3 repeated wells per concentration). Compounds were pre-dissolved in DMSO, sterilized, and diluted with medium before adding 20 μL/well. After co-incubation for designated durations, 10 μL CCK-8 solution was added per well followed by 1-4 h incubation (different cells have different incubation times). The reaction was terminated, and OD (optical density) values at 450 nm were measured using a microplate reader. Inhibition rates were calculated as: (ODcontrol−ODtreatment)/ODcontrol×100%. Median inhibitory concentrations (IC50 values) were derived using Origin v8.0 software.

The test system of the next assay is 5637 cells. Description: CCK-8 anti-proliferative assay, 5637. To be noted: Table 16, comparative compounds 8-1 to 8-23, co-incubated 48 h, read-out: Anti-proliferative activity (IC50 ± standard deviation) 5637. The protocol:
(§3) The obtained quinazolinyl-aryl urea derivatives were screened for compounds with optimal activity using the following method.
as §2, with “The reaction was terminated, and OD (optical density) values at 450 nm were measured using a microplate reader.” left out
A general note: Tetrazolium dyes change colour on reduction, which living cells bring about.

Another assay relates to MCF-7 cells. Description: CCK-8 anti-proliferative assay, MCF-7. To be noted: Table 16, comparative compounds 8-1 to 8-23, co-incubated 48 h, read-out: Anti-proliferative activity (IC50 ± standard deviation) MCF-7. As for the experimental part:
as §3
as §2, with “The reaction was terminated, and OD (optical density) values at 450 nm were measured using a microplate reader.” left out

The subject of the next assay is A549 cells. Briefly: CCK-8 anti-proliferative assay, A549. The conditions noted are these: Table 16, comparative compounds 8-1 to 8-23, co-incubated 48 h, read-out: Anti-proliferative activity (IC50 ± standard deviation) A549. As for the experimental part: as §3
as §2, with “The reaction was terminated, and OD (optical density) values at 450 nm were measured using a microplate reader.” left out

The next assay has as its system Hep G2 cells. Description: CCK-8 anti-proliferative assay, Hep G2.
Excerpt: as §1, §2

Another assay deals with BxPC-3 cells. Briefly: CCK-8 anti-proliferative assay, BxPC-3. The conditions noted are these: Homo sapiens, BXPC-3; Table 7; co-incubated 48 h; read-out: Anti-proliferative activity (IC50 ± standard deviation) BxPC-3.
Excerpt: as §1, §2

A further assay deals with PANC-1 cells. Description: CCK-8 anti-proliferative assay, PANC-1. To be noted: Homo sapiens, PANC-1; Table 7; co-incubated 48 h; read-out: Anti-proliferative activity (IC50 ± standard deviation) PANC-1.
Excerpt: as §1, §2

[1] abbreviates: Homo sapiens, HepG2, Table 16, comparative compounds 8-1 to 8-23, co-incubated 48 h, read-out: Anti-proliferative activity (IC50 ± standard deviation) Hep G2.
The mark [2] stands for this setting: Table 16, comparative compounds 8-1 to 8-23, co-incubated 48 h, read-out: Anti-proliferative activity (IC50 ± standard deviation) Hep G2.

Counter-ions that a name gives are not always drawn. Like-named read-outs stand apart in the source and are kept apart here.

The IC50 is the concentration that inhibits the measured activity by half. With `COc1ccccc1NC(=O)Nc1cccc(CNc2ncnc3cc(OC)c(OCCCC(=O)N4CCC(N5CCOCC5)CC4)cc23)c1` [Compound 8-10, reference compound], the half-maximal inhibitory concentration (IC50) was 18.7 ± 0.38 µM in the assay on T24 cells (Homo sapiens, T-24); 16.9 ± 0.64 µM with 5637 cells (Homo sapiens); 19.3 ± 0.56 µM in the assay with MCF-7 cells (Homo sapiens, MCF7); > 30 µM in the assay with A549 cells (Homo sapiens, A549); 28.8 ± 0.58 µM in the assay with Hep G2 cells (setting [1]).
With `COc1cc2ncnc(NCc3cccc(NC(=O)NCc4ccccc4)c3)c2cc1OCCCC(=O)N1CCC(N2CCOCC2)CC1` [Compound 8-23, reference compound], the IC50 with T24 cells (Homo sapiens, T-24) is > 30 µM; with 5637 cells (Homo sapiens), 26.8 ± 0.63 µM; with MCF-7 cells (Homo sapiens, MCF7), 23.1 ± 0.92 µM; with A549 cells (Homo sapiens, A549), > 30 µM; with Hep G2 cells (setting [1]), > 30 µM.
Consider `COc1cc2ncnc(NCc3cccc(NC(=O)Nc4ccc(C)cc4)c3)c2cc1OCCCC(=O)N1CCC(N2CCOCC2)CC1` [Compound 8-3, reference compound], for which the IC50 with T24 cells (Homo sapiens, T-24) was 20.6 ± 0.68 µM; in the assay on 5637 cells (Homo sapiens), > 30 µM; in the assay on MCF-7 cells (Homo sapiens, MCF7) it was 23.2 ± 0.35 µM; with A549 cells (Homo sapiens, A549) it was 24.1 ± 0.95 µM; with Hep G2 cells (setting [1]), > 30 µM.
As to `COc1cc2ncnc(NCc3cccc(NC(=O)Nc4ccc(C(C)(C)C)cc4)c3)c2cc1OCCCC(=O)N1CCC(N2CCOCC2)CC1` [Compound 8-9, reference compound], the IC50 was determined as 4.54 ± 0.04 µM in the assay with T24 cells (Homo sapiens, T-24); 6.25 ± 0.06 µM in the assay with 5637 cells (Homo sapiens); 6.55 ± 0.13 µM in the assay on MCF-7 cells (Homo sapiens, MCF7); 12.5 ± 0.37 µM in the assay with A549 cells (Homo sapiens, A549); 12.2 ± 0.17 µM in the assay on Hep G2 cells (setting [1]); 12.2 ± 0.17 µM with Hep G2 cells (Homo sapiens, HepG2, read-out: IC50 on Hep G2).
On to `COc1cc2ncnc(NCc3cccc(NC(=O)Nc4ccc(F)cc4)c3)c2cc1OCCCCCCN1CCN(CCN2CCOCC2)CC1` [Compound 8-11, reference compound], for which the IC50 with T24 cells was 23.3 ± 1.82 µM; in the assay with 5637 cells, 17.9 ± 0.33 µM; with MCF-7 cells it was 18.3 ± 0.43 µM; in the assay on A549 cells it was > 30 µM; in the assay with Hep G2 cells (setting [2]) it was > 30 µM.
For `COc1cc2ncnc(NCc3cccc(NC(=O)Nc4ccccc4C)c3)c2cc1OCCCC(=O)N1CCC(N2CCOCC2)CC1` [Compound 8-2, reference compound], the IC50 is > 30 µM in the assay on T24 cells (Homo sapiens, T-24); 25.9 ± 1.32 µM in the assay with 5637 cells (Homo sapiens); 16.5 ± 0.64 µM in the assay on MCF-7 cells (Homo sapiens, MCF7); > 30 µM with A549 cells (Homo sapiens, A549); > 30 µM in the assay with Hep G2 cells (setting [1]).
As to `COc1cc2ncnc(NCc3cccc(NC(=O)Nc4ccc(C(C)C)cc4)c3)c2cc1OCCCC(=O)N1CCC(N2CCOCC2)CC1` [Compound 8-8, reference compound], the IC50 is 7.73 ± 0.23 µM with T24 cells (Homo sapiens, T-24); 7.6 ± 0.18 µM in the assay on 5637 cells (Homo sapiens); 10 ± 0.19 µM with MCF-7 cells (Homo sapiens, MCF7); 18.3 ± 0.29 µM with A549 cells (Homo sapiens, A549); 17.7 ± 0.46 µM in the assay on Hep G2 cells (setting [1]).
`COc1cc2ncnc(NCc3cccc(NC(=O)Nc4c(Cl)cc(Cl)cc4Cl)c3)c2cc1OCCCC(=O)N1CCC(N2CCOCC2)CC1` [Compound 8-16, reference compound]: the IC50 in the assay with T24 cells (Homo sapiens, T-24) was > 30 µM; with 5637 cells (Homo sapiens), > 30 µM; in the assay with MCF-7 cells (Homo sapiens, MCF7), 15.9 ± 0.62 µM; in the assay with A549 cells (Homo sapiens, A549), > 50 µM; in the assay with Hep G2 cells (setting [1]), > 30 µM.
In the case of `COc1cc2ncnc(NCc3cccc(NC(=O)Nc4ccc(Cl)cc4)c3)c2cc1OCCCC(=O)N1CCC(N2CCOCC2)CC1` [Compound 8-15, reference compound], the IC50 with T24 cells (Homo sapiens, T-24) is 19.1 ± 0.53 µM; in the assay on 5637 cells (Homo sapiens), 14 ± 0.72 µM; in the assay with MCF-7 cells (Homo sapiens, MCF7), 16.8 ± 0.32 µM; in the assay with A549 cells (Homo sapiens, A549) it was 13.8 ± 0.35 µM; in the assay with Hep G2 cells (setting [1]) it was > 30 µM.
As for `COc1ccc(NC(=O)Nc2cccc(CNc3ncnc4cc(OC)c(OCCCCCCN5CCC(CN6CCN(c7ccccn7)CC6)CC5)cc34)c2)cc1` [Compound 8-21, reference compound], the IC50 with T24 cells came out at 5.42 ± 0.05 µM; in the assay on 5637 cells it was 6.61 ± 0.07 µM; in the assay on MCF-7 cells it was 12.2 ± 0.32 µM; with A549 cells, 11.9 ± 0.23 µM; with Hep G2 cells (setting [2]), 14.1 ± 0.2 µM.
For `COc1cc2ncnc(NCc3cccc(NC(=O)Nc4ccccc4Cl)c3)c2cc1OCCCCCCN1CCC(CN2CCN(c3ccccn3)CC2)CC1` [Compound 8-20, reference compound], the IC50 was 18.4 ± 0.81 µM in the assay with T24 cells; 14.1 ± 0.29 µM in the assay with 5637 cells; 20.5 ± 0.38 µM in the assay on MCF-7 cells; 22.4 ± 1.01 µM with A549 cells; > 30 µM in the assay on Hep G2 cells (setting [2]).
Turning to `COc1cc2ncnc(NCc3cccc(NC(=O)Nc4ccccc4)c3)c2cc1OCCCC(=O)N1CCC(N2CCOCC2)CC1` [Compound 8-1, reference compound], the IC50 was 18.8 ± 0.49 µM with T24 cells (Homo sapiens, T-24); 26.2 ± 0.98 µM in the assay on 5637 cells (Homo sapiens); 18.3 ± 0.53 µM in the assay on MCF-7 cells (Homo sapiens, MCF7); > 30 µM in the assay on A549 cells (Homo sapiens, A549); 28.2 ± 0.49 µM in the assay with Hep G2 cells (setting [1]).
Take `COc1cc2ncnc(NCc3cccc(NC(=O)Nc4ccc(C)cc4C)c3)c2cc1OCCCC(=O)N1CCC(N2CCOCC2)CC1` [Compound 8-4, reference compound]: the IC50 with T24 cells (Homo sapiens, T-24) is 27.1 ± 0.33 µM; with 5637 cells (Homo sapiens), 14 ± 0.66 µM; in the assay with MCF-7 cells (Homo sapiens, MCF7), 18.5 ± 0.63 µM; in the assay on A549 cells (Homo sapiens, A549), 22.2 ± 1.15 µM; in the assay on Hep G2 cells (setting [1]), > 30 µM.
As to `COc1cc2ncnc(NCc3cccc(NC(=O)Nc4ccccc4Cl)c3)c2cc1OCCCC(=O)N1CCC(N2CCOCC2)CC1` [Compound 8-14, reference compound], the half-inhibitory concentration (IC50) with T24 cells (Homo sapiens, T-24) was 23.1 ± 0.73 µM; with 5637 cells (Homo sapiens) it was 28.9 ± 0.53 µM; in the assay with MCF-7 cells (Homo sapiens, MCF7), 18.6 ± 0.35 µM; in the assay on A549 cells (Homo sapiens, A549), 20.2 ± 0.92 µM; in the assay on Hep G2 cells (setting [1]), > 30 µM.
Regarding `COc1cc2ncnc(NCc3cccc(NC(=O)Nc4ccc(F)cc4)c3)c2cc1OCCCC(=O)N1CCC(N2CCOCC2)CC1` [Compound 8-13, reference compound], the IC50 in the assay with T24 cells (Homo sapiens, T-24) was 19.5 ± 0.27 µM; in the assay with 5637 cells (Homo sapiens), 13.9 ± 0.43 µM; with MCF-7 cells (Homo sapiens, MCF7), 21.5 ± 0.47 µM; in the assay with A549 cells (Homo sapiens, A549), > 30 µM; with Hep G2 cells (setting [1]) it was > 30 µM.
With `COc1cc2ncnc(NCc3cccc(NC(=O)Nc4ccc(C(F)(F)F)cc4)c3)c2cc1OCCCC(=O)N1CCC(N2CCOCC2)CC1` [Compound 8-18, reference compound], the IC50 is 19.6 ± 0.45 µM with T24 cells (Homo sapiens, T-24); 13.1 ± 0.24 µM in the assay on 5637 cells (Homo sapiens); 13.2 ± 0.39 µM in the assay with MCF-7 cells (Homo sapiens, MCF7); 18.8 ± 0.59 µM in the assay on A549 cells (Homo sapiens, A549); > 30 µM in the assay on Hep G2 cells (setting [1]).
`C#Cc1cccc(Nc2ncnc3cc(OCCOC)c(OCCOC)cc23)c1` [Erlo, erlotinib hydrochloride, reference compound]: the half-maximal inhibitory concentration (IC50) in the assay with BxPC-3 cells was determined as 18.3 ± 1.46 µM; in the assay on PANC-1 cells, 27.4 ± 1.77 µM.
With `COc1cc2ncnc(NCc3cccc(NC(=O)Nc4cc(C)cc(C)c4)c3)c2cc1OCCCC(=O)N1CCC(N2CCOCC2)CC1` [Compound 8-5, reference compound], the IC50 in the assay with T24 cells (Homo sapiens, T-24) is 23.2 ± 0.54 µM; in the assay on 5637 cells (Homo sapiens), 21.7 ± 0.51 µM; in the assay on MCF-7 cells (Homo sapiens, MCF7), 21.3 ± 0.42 µM; with A549 cells (Homo sapiens, A549) it was 21 ± 0.87 µM; with Hep G2 cells (setting [1]) it was > 30 µM.

For the origin of these results see US20260285816A1, “Piperazinyl-Modified Quinazolinyl-Aryl Urea Derivative, And Preparation Method And Use Thereof” (Guangxi Normal University, priority 2025, published 2026).
